Here are results for 30 compounds from article PMC8286840, “Identifying SARS-CoV-2 antiviral compounds by screening for small molecule inhibitors of Nsp3 papain-like protease” (Biochemical Journal, 2021).

The target of assay [1] is T1, SARS-CoV-2 PLpro (nsp3 1564–1878) (Severe acute respiratory syndrome coronavirus 2, UniProt P0DTD1). Briefly: biochemical. The arrangement: FRET-quenched peptide (Pro3) cleavage by PLpro, 10 min pre-incubation, slope over 20 min, normalised to no-compound control. The note with it: low concentration screen, read-out: % of control remaining.
Assay [2] deals with T1, SARS-CoV-2 PLpro (nsp3 1564–1878). Briefly: biochemical. The settings on record: high concentration screen, read-out: % of control remaining. The arrangement: FRET-quenched peptide (Pro3) cleavage by PLpro, 10 min pre-incubation, slope over 20 min, normalised to no-compound control.

SMILES strings stand for the structures. Counter-ions that a name gives are not always drawn. Like-named read-outs stand apart in the source and are kept apart here.

Take `CCN(CC)C(=O)/C(C#N)=C/c1cc(O)c(O)c([N+](=O)[O-])c1` [Entacapone]: in assay [1] (Well no.=1888), the remaining activity at 1.25 µM turned out to be 96.2%. Further, the remaining activity at 3.75 µM in assay [2] (Well no.=1888) turned out to be 93%.
Take `C=C1[C@H](CO)[C@@H](O)C[C@@H]1n1cnc2c(=O)[nH]c(N)nc21` [Entecavir hydrate]: the remaining activity at 1.25 µM in assay [1] (Well no.=5147) was 93.9%. Also, the remaining activity at 3.75 µM in assay [2] (Well no.=5147) was 95.5%.
In the case of `Cn1cc(C2=C(c3cn(C4CCN(Cc5ccccn5)CC4)c4ccccc34)C(=O)NC2=O)c2ccccc21` [Enzastaurin (LY317615)], the remaining activity at 1.25 µM in assay [1] (Well no.=5003) is 93%. In addition, the remaining activity at 3.75 µM in assay [2] (Well no.=5003) amounted to 87.9%.
Consider `NS(=O)(=O)NCCNc1nonc1/C(=N/O)Nc1ccc(F)c(Br)c1` [Epacadostat (INCB024360)], for which, in assay [1] (Well no.=8722), the remaining activity at 1.25 µM amounted to 99.6%. Further, the remaining activity at 3.75 µM in assay [2] (Well no.=8722) stood at 95.9%.
For the compound `NS(=O)(=O)NCCNc1nonc1/C(=N/O)Nc1ccc(F)c(Br)c1` [Epacadostat], the remaining activity at 1.25 µM in assay [1] (Well no.=8415) is 99.9%. The remaining activity at 3.75 µM in assay [2] (Well no.=8415) is 95.7%.
On to `CC(/C=C1\SC(=S)N(CC(=O)O)C1=O)=C\c1ccccc1` [Epalrestat], for which the remaining activity at 1.25 µM in assay [1] (Well no.=5046) worked out at 100%. Moreover, the remaining activity at 3.75 µM in assay [2] (Well no.=5046) was 104%.
Take `C[C@]12CC[C@H](O)C[C@@H]1CC[C@@H]1[C@@H]2CC[C@]2(C)C(=O)CC[C@@H]12` [Epiandrosterone]: in assay [1] (Well no.=6441), the remaining activity at 1.25 µM was determined as 103%. The remaining activity at 3.75 µM in assay [2] (Well no.=6441) stood at 103%.
Turning to `COc1cc2c(cc1OC)-c1cc3ccc4c(c3c[n+]1CC2)OCO4` [Epiberberine (chloride)], in assay [1] (Well no.=8339), the remaining activity at 1.25 µM came out at 91.9%. Further, in assay [2] (Well no.=8339), the remaining activity at 3.75 µM came out at 91.9%.
With `CC(C)C[C@H](NC(=O)[C@H](O)[C@H](N)Cc1ccccc1)C(=O)O` [Epibestatin hydrochloride], the remaining activity at 1.25 µM in assay [1] (Well no.=692) came to 96.8%. For the same compound, the remaining activity at 3.75 µM in assay [2] (Well no.=692) came out at 93.6%.
With `O=C(O[C@@H]1Cc2c(O)cc(O)cc2O[C@@H]1c1cc(O)c(O)c(O)c1)c1cc(O)c(O)c(O)c1` [Epigallocatechin gallate], the remaining activity at 1.25 µM in assay [1] (Well no.=3895) came out at 98.4%. Moreover, the remaining activity at 3.75 µM in assay [2] (Well no.=3895) worked out at 101%.
As for `Oc1cc(O)c2c(c1)O[C@H](c1cc(O)c(O)c(O)c1)[C@H](O)C2` [Epigallocatechin], the remaining activity at 1.25 µM in assay [1] (Well no.=3277) amounted to 102%. Besides, the remaining activity at 3.75 µM in assay [2] (Well no.=3277) was determined as 101%.
`NC1=NCC2c3ccccc3Cc3ccccc3N12` (stereo not drawn) [Epinastine]: the remaining activity at 1.25 µM in assay [1] (Well no.=6611) was found to be 96%. Also, the remaining activity at 3.75 µM in assay [2] (Well no.=6611) worked out at 94.8%.
With `CNC[C@H](O)c1ccc(O)c(O)c1` [Epinephrine bitartrate (Adrenalinium)], the remaining activity at 1.25 µM in assay [1] (Well no.=5254) stood at 105%. For the same compound, in assay [2] (Well no.=5254), the remaining activity at 3.75 µM was 101%.
Consider `COc1cccc2c1C(=O)c1c(O)c3c(c(O)c1C2=O)C[C@@](O)(C(=O)CO)C[C@@H]3O[C@H]1C[C@H](N)[C@@H](O)[C@H](C)O1` [Epirubicin HCl], for which the remaining activity at 1.25 µM in assay [1] (Well no.=5141) amounted to 106%. Also, in assay [2] (Well no.=5141), the remaining activity at 3.75 µM worked out at 107%.
As for `COC(=O)[C@@H]1CC2=CC(=O)CC[C@]2(C)[C@@]23O[C@@H]2C[C@@]2(C)[C@@H](CC[C@@]24CCC(=O)O4)[C@H]13` [Eplerenone], the remaining activity at 1.25 µM in assay [1] (Well no.=5343) worked out at 97.5%. The remaining activity at 3.75 µM in assay [2] (Well no.=5343) came to 96.5%.
With `C/C(=C\c1csc(C)n1)[C@@H]1C[C@@H]2O[C@@H]2CCC[C@H](C)[C@H](O)[C@@H](C)C(=O)C(C)(C)[C@@H](O)CC(=O)O1` [Epothilone A], in assay [1] (Well no.=5157), the remaining activity at 1.25 µM was 95.3%. In addition, the remaining activity at 3.75 µM in assay [2] (Well no.=5157) was determined as 93.4%.
On to `CCCCCCCC[C@H]1O[C@H]1CCCCCCCC(=O)O` [Epoxy-oleic acid], for which the remaining activity at 1.25 µM in assay [1] (Well no.=4569) turned out to be 96.6%. Further, the remaining activity at 3.75 µM in assay [2] (Well no.=4569) was found to be 103%.
Take `CCCCc1ncc(/C=C(\Cc2cccs2)C(=O)O)n1Cc1ccc(C(=O)O)cc1` [Eprosartan (mesylate)]: the remaining activity at 1.25 µM in assay [1] (Well no.=8191) stood at 105%. In addition, the remaining activity at 3.75 µM in assay [2] (Well no.=8191) turned out to be 105%.
For the compound `CCCCc1ncc(/C=C(\Cc2cccs2)C(=O)O)n1Cc1ccc(C(=O)O)cc1` [Eprosartan mesylate], in assay [1] (Well no.=1882), the remaining activity at 1.25 µM was 98.4%. The remaining activity at 3.75 µM in assay [2] (Well no.=1882) stood at 99.1%.
In the case of `Oc1ccc([C@H]2COc3cc(O)ccc3C2)cc1` [Equol], in assay [1] (Well no.=5252), the remaining activity at 1.25 µM turned out to be 99.7%. Further, the remaining activity at 3.75 µM in assay [2] (Well no.=5252) worked out at 99.3%.
Consider `CCOc1ccccc1-n1c(C(C)N2CCN(C(=O)COc3ccc(Cl)cc3)CC2)nc2ccccc2c1=O` (stereo not drawn) [Erastin], for which, in assay [1] (Well no.=6732), the remaining activity at 1.25 µM is 98.2%. Moreover, the remaining activity at 3.75 µM in assay [2] (Well no.=6732) was determined as 96.5%.
In the case of `CC(C)[C@@]1(NC(=O)[C@@H]2C=C3c4cccc5[nH]cc(c45)C[C@H]3N(C)C2)O[C@@]2(O)[C@@H]3CCCN3C(=O)[C@H](Cc3ccccc3)N2C1=O` [Ergocristine], in assay [1] (Well no.=561), the remaining activity at 1.25 µM came out at 105%. The remaining activity at 3.75 µM in assay [2] (Well no.=561) is 102%.
As to `CC(C)[C@@H](C)/C=C/[C@@H](C)[C@H]1CC[C@H]2C3=CC=C4C[C@@H](O)CC[C@]4(C)[C@H]3CC[C@]12C` [Ergosterol], in assay [1] (Well no.=5194), the remaining activity at 1.25 µM came to 102%. Moreover, the remaining activity at 3.75 µM in assay [2] (Well no.=5194) was 101%.
For `CN1C[C@H](C(=O)N[C@]2(C)O[C@@]3(O)[C@@H]4CCCN4C(=O)[C@H](Cc4ccccc4)N3C2=O)C=C2c3cccc4[nH]cc(c34)C[C@H]21` [Ergotamine], in assay [1] (Well no.=1726), the remaining activity at 1.25 µM turned out to be 99.5%. Besides, the remaining activity at 3.75 µM in assay [2] (Well no.=1726) stood at 98.3%.
Turning to `C[N+](C)(C)[C@@H](Cc1c[nH]c(=S)[nH]1)C(=O)[O-]` [Ergothioneine], the remaining activity at 1.25 µM in assay [1] (Well no.=1612) came to 100%. For the same compound, the remaining activity at 3.75 µM in assay [2] (Well no.=1612) was determined as 98.8%.
With `C[C@@H]1O[C@@H](OC[C@H]2O[C@@H](Oc3cc(O)c4c(c3)O[C@H](c3ccc(O)c(O)c3)CC4=O)[C@H](O)[C@@H](O)[C@@H]2O)[C@H](O)[C@H](O)[C@H]1O` [Eriocitrin], the remaining activity at 1.25 µM in assay [1] (Well no.=3257) is 98.6%. The remaining activity at 3.75 µM in assay [2] (Well no.=3257) was determined as 97.1%.
In the case of `O=C1C[C@@H](c2ccc(O)c(O)c2)Oc2cc(O[C@@H]3O[C@H](CO)[C@@H](O)[C@H](O)[C@H]3O)cc(O)c21` [Eriodictyol-7-O-glucoside], in assay [1] (Well no.=3261), the remaining activity at 1.25 µM is 96.6%. For the same compound, in assay [2] (Well no.=3261), the remaining activity at 3.75 µM came out at 95.5%.
Regarding `O=C1C[C@@H](c2ccc(O)c(O)c2)Oc2cc(O)cc(O)c21` [Eriodictyol], the remaining activity at 1.25 µM in assay [1] (Well no.=3259) came out at 104%. The remaining activity at 3.75 µM in assay [2] (Well no.=3259) was determined as 103%.
Consider `CCOC(=O)CCC(=O)O[C@H]1[C@H](O[C@@H]2[C@@H](C)[C@H](O[C@H]3C[C@@](C)(OC)[C@@H](O)[C@H](C)O3)[C@@H](C)C(=O)O[C@H](CC)[C@@](C)(O)[C@H](O)[C@@H](C)C(=O)[C@H](C)C[C@@]2(C)O)O[C@H](C)C[C@@H]1N(C)C` [Erythromycin Ethylsuccinate], for which the remaining activity at 1.25 µM in assay [1] (Well no.=5126) amounted to 100%. Besides, in assay [2] (Well no.=5126), the remaining activity at 3.75 µM was found to be 102%.
Take `CN(C)CCC[C@@]1(c2ccc(F)cc2)OCc2cc(C#N)ccc21` [Escitalopram Oxalate]: in assay [1] (Well no.=5128), the remaining activity at 1.25 µM was 109%. Also, the remaining activity at 3.75 µM in assay [2] (Well no.=5128) came to 107%.
